How the values were obtained:
[1] = system: sexual function, mood and well-being; experiment: Example 1: 12-week coadministration of oral estrogen and transdermal testosterone, sexual function, mood and well-being; assay type: in vivo, human; conditions: transdermal patch 300 mcg/day twice weekly plus oral Premarin 0.625 to 2.5 mg daily; after 12 weeks; surgically menopausal women
Text: The duration of coadministration was 12 weeks.

[2] = molecular target: T1, sex hormone binding globulin (SHBG) (Homo sapiens, UniProt P04278); conditions: adapted from Dunn et al. 1981; human plasma; cited from earlier work
T1 sequence (P04278 30-402): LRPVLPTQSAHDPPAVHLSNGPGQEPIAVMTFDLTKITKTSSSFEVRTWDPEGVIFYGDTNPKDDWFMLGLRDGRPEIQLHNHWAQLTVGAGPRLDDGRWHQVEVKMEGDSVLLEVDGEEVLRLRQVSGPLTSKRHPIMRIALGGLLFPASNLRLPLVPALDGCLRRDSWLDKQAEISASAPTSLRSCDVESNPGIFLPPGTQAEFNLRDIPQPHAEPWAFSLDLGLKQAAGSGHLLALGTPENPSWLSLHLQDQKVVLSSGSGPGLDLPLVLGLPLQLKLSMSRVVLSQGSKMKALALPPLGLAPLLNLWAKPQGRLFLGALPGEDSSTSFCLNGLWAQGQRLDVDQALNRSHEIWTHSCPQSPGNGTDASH

[3] = Example 1: serum hormone levels on the regimen; conditions: Example 1 regimen; for bioavailability: female, human, in vivo
Experimental: The estrogen consisted of conjugated equine estrogen (Premarin® tablets) at a daily dose of 0.625 to 2.5 mg. […] The duration of coadministration was 12 weeks.

[4] = Predicted change in total testosterone, power-law regression of FIG. 1; conditions: for concentration at 3.5 day: human, serum, other: transdermal
[5] = Estimated testosterone delivery rate for a given increase in free testosterone, power-law regression of FIG. 2; assay type: in vivo, human
[6] = Pharmacokinetic study of testosterone transdermal matrix patch in surgically menopausal women: total and free testosterone; assay type: in vivo, human; conditions: 300 mcg/day patch; for concentration at 3.5 day: female, human, serum, time-average change from baseline, mean±SEM
Experimental: One group had received no estrogen replacement therapy (ERT) for at least one month, the second group was receiving transdermal estadiol (E2) at a dosage of 0.1 mg/day, and the third group was receiving oral conjugated equine estrogens (CEE) at a dosage of 1.25 mg/day. […] The resultant hormone data (mean±SEM) for the three groups of surgically menopausal women participating in the clinical study is summarized in Table 2 below.
It should be noted that the normal range for SHBG levels is 36 to 185 nmol/L using the Endocrine Sciences assay.

[7] = Change in FT 1 pg/mL, SHBG 50 nmol/L
[8] = Change in FT 1 pg/mL, SHBG 84 nmol/L
[9] = Change in FT 1 pg/mL, SHBG 100 nmol/L
[10] = Change in FT 1 pg/mL, SHBG 200 nmol/L
[11] = Change in FT 1 pg/mL, SHBG 400 nmol/L
[12] = Change in FT 1 pg/mL, SHBG 600 nmol/L
[13] = Change in FT 1 pg/mL, SHBG 700 nmol/L
[14] = Change in FT 2.5 pg/mL, SHBG 50 nmol/L
[15] = Change in FT 2.5 pg/mL, SHBG 84 nmol/L
[16] = Change in FT 2.5 pg/mL, SHBG 100 nmol/L
[17] = Change in FT 2.5 pg/mL, SHBG 200 nmol/L
[18] = Change in FT 2.5 pg/mL, SHBG 400 nmol/L
[19] = Change in FT 2.5 pg/mL, SHBG 600 nmol/L
[20] = Change in FT 2.5 pg/mL, SHBG 700 nmol/L
[21] = Change in FT 5 pg/mL, SHBG 50 nmol/L
[22] = Change in FT 5 pg/mL, SHBG 84 nmol/L
[23] = Change in FT 5 pg/mL, SHBG 100 nmol/L
[24] = Change in FT 5 pg/mL, SHBG 200 nmol/L
[25] = Change in FT 5 pg/mL, SHBG 400 nmol/L
[26] = Change in FT 5 pg/mL, SHBG 600 nmol/L
[27] = Change in FT 5 pg/mL, SHBG 700 nmol/L
[28] = Change in FT 10 pg/mL, SHBG 50 nmol/L
[29] = Change in FT 10 pg/mL, SHBG 84 nmol/L
[30] = Change in FT 10 pg/mL, SHBG 100 nmol/L
[31] = Change in FT 10 pg/mL, SHBG 200 nmol/L
[32] = Change in FT 15 pg/mL, SHBG 50 nmol/L
[33] = Change in FT 15 pg/mL, SHBG 84 nmol/L
[34] = Change in FT 15 pg/mL, SHBG 100 nmol/L
[35] = Change in FT 15 pg/mL, SHBG 200 nmol/L
[36] = Change in FT 15 pg/mL, SHBG 400 nmol/L
[37] = Change in FT 15 pg/mL, SHBG 600 nmol/L
[38] = Change in FT 15 pg/mL, SHBG 700 nmol/L

## C[C@]12CC[C@H]3[C@@H](CCC4=CC(=O)CC[C@@]43C)[C@@H]1CC[C@@H]2O [testosterone, (17)-17-Hydroxyandrost-4-en-3-one]
[1]
  sexual function, mood and well-being in comparison to conjugated equine estrogen alone: improved sexual function, mood and well-being
[2]
  K (binding affinity constant for SHBG): 1600 10^6 Liter/mole
[3]
  women with free testosterone level below 6.8 pg/mL: 78%
  women with free testosterone level below 15 pg/mL: 97%
  women with total testosterone levels in excess of 80 ng/dL: 73%
[3]; women with bioavailable testosterone level below 12.7 ng/dL
  bioavailability: 68%
[3]; women with bioavailable testosterone level below 35 ng/dL
  bioavailability: 97%
[4]; [7]
  Predicted Changes in Total Testosterone: 9 ng/dL
[4]; [8]
  Predicted Changes in Total Testosterone: 12 ng/dL
[4]; [9]
  Predicted Changes in Total Testosterone: 14 ng/dL
[4]; [10]
  Predicted Changes in Total Testosterone: 23 ng/dL
[4]; [11]
  Predicted Changes in Total Testosterone: 37 ng/dL
[4]; [12]
  Predicted Changes in Total Testosterone: 49 ng/dL
[4]; [13]
  Predicted Changes in Total Testosterone: 55 ng/dL
[4]; [14]
  Predicted Changes in Total Testosterone: 21 ng/dL
[4]; [15]
  Predicted Changes in Total Testosterone: 31 ng/dL
[4]; [16]
  Predicted Changes in Total Testosterone: 35 ng/dL
[4]; [17]
  Predicted Changes in Total Testosterone: 57 ng/dL
[4]; [18]
  Predicted Changes in Total Testosterone: 92 ng/dL
[4]; [19]
  Predicted Changes in Total Testosterone: 123 ng/dL
[4]; [20]
  Predicted Changes in Total Testosterone: 137 ng/dL
[4]; [21]
  Predicted Changes in Total Testosterone: 43 ng/dL
[4]; [22]
  Predicted Changes in Total Testosterone: 61 ng/dL
[4]; [23]
  Predicted Changes in Total Testosterone: 69 ng/dL
[4]; [24]
  Predicted Changes in Total Testosterone: 113 ng/dL
[4]; [25]
  Predicted Changes in Total Testosterone: 184 ng/dL
[4]; [26]
  Predicted Changes in Total Testosterone: 245 ng/dL
[4]; [27]
  Predicted Changes in Total Testosterone: 273 ng/dL
[4]; [28]
  Predicted Changes in Total Testosterone: 85 ng/dL
[4]; [29]
  Predicted Changes in Total Testosterone: 123 ng/dL
[4]; [30]
  Predicted Changes in Total Testosterone: 139 ng/dL
[4]; [31]
  Predicted Changes in Total Testosterone: 226 ng/dL
[4]; [32]
  Predicted Changes in Total Testosterone: 128 ng/dL
[4]; [33]
  Predicted Changes in Total Testosterone: 184 ng/dL
[4]; [34]
  Predicted Changes in Total Testosterone: 208 ng/dL
[4]; [35]
  Predicted Changes in Total Testosterone: 339 ng/dL
[4]; [36]
  Predicted Changes in Total Testosterone: 553 ng/dL
[4]; [37]
  Predicted Changes in Total Testosterone: 736 ng/dL
[4]; [38]
  Predicted Changes in Total Testosterone: 820 ng/dL
[4]; 1313 mcg/day
  concentration at 3.5 day: 3.68 ng/mL
[4]; 1553 mcg/day
  concentration at 3.5 day: 4.9 ng/mL
[4]; 1656 mcg/day
  concentration at 3.5 day: 5.47 ng/mL
[4]; 2484 mcg/day
  concentration at 3.5 day: 8.2 ng/mL
[5]; [7]
  Estimated Delivery Rate: 55 µg/day
[5]; [8]
  Estimated Delivery Rate: 69 µg/day
[5]; [9]
  Estimated Delivery Rate: 74 µg/day
[5]; [10]
  Estimated Delivery Rate: 98 µg/day
[5]; [11]
  Estimated Delivery Rate: 131 µg/day
[5]; [12]
  Estimated Delivery Rate: 155 µg/day
[5]; [13]
  Estimated Delivery Rate: 166 µg/day
[5]; [14]
  Estimated Delivery Rate: 139 µg/day
[5]; [15]
  Estimated Delivery Rate: 172 µg/day
[5]; [16]
  Estimated Delivery Rate: 185 µg/day
[5]; [17]
  Estimated Delivery Rate: 246 µg/day
[5]; [18]
  Estimated Delivery Rate: 328 µg/day
[5]; [19]
  Estimated Delivery Rate: 388 µg/day
[5]; [20]
  Estimated Delivery Rate: 414 µg/day
[5]; [21]
  Estimated Delivery Rate: 277 µg/day
[5]; [22]
  Estimated Delivery Rate: 344 µg/day
[5]; [23]
  Estimated Delivery Rate: 369 µg/day
[5]; [24]
  Estimated Delivery Rate: 492 µg/day
[5]; [25]
  Estimated Delivery Rate: 656 µg/day
[5]; [26]
  Estimated Delivery Rate: 111 µg/day
[5]; [27]
  Estimated Delivery Rate: 828 µg/day
[5]; [28]
  Estimated Delivery Rate: 554 µg/day
[5]; [29]
  Estimated Delivery Rate: 687 µg/day
[5]; [30]
  Estimated Delivery Rate: 739 µg/day
[5]; [31]
  Estimated Delivery Rate: 985 µg/day
[5]; Change in FT 10 pg/mL, SHBG 400 nmol/L
  Estimated Delivery Rate: 1313 µg/day
[5]; Change in FT 10 pg/mL, SHBG 600 nmol/L
  Estimated Delivery Rate: 1553 µg/day
[5]; Change in FT 10 pg/mL, SHBG 700 nmol/L
  Estimated Delivery Rate: 1656 µg/day
[5]; [32]
  Estimated Delivery Rate: 831 µg/day
[5]; [33]
  Estimated Delivery Rate: 1031 µg/day
[5]; [34]
  Estimated Delivery Rate: 1108 µg/day
[5]; [35]
  Estimated Delivery Rate: 1477 µg/day
[5]; [36]
  Estimated Delivery Rate: 1969 µg/day
[5]; [37]
  Estimated Delivery Rate: 2330 µg/day
[5]; [38]
  Estimated Delivery Rate: 2484 µg/day
[6]
  mean increase in free serum testosterone lower in oral estrogen group than other two groups: approximately 40%
[6]; time-averaged change from baseline
  mean increase in total serum testosterone greater in oral estrogen group than other two groups: approximately 30%
[6]; other: transdermal patch, with Transdermal E2 0.1 mg/day, n=12, read-out: Changes in Free T
  concentration at 3.5 day: 0.0042 ± 0.0007 ng/mL
[6]; other: transdermal patch, with Transdermal E2 0.1 mg/day, n=12, read-out: Changes in Total T
  concentration at 3.5 day: 0.536 ± 0.072 ng/mL
[6]; other: transdermal patch, 300 mcg/day, No ERT, n=19, 3.5 day application, read-out: Changes in Total T
  concentration at 3.5 day: 0.572 ± 0.044 ng/mL
[6]; other: transdermal patch, 300 mcg/day, No ERT, n=19, read-out: Changes in Free T
  concentration at 3.5 day: 0.0046 ± 0.0004 ng/mL
[6]; po, with Oral CEE 1.25 mg/day, n=13, read-out: Changes in Free T
  concentration at 3.5 day: 0.00256 ± 0.0003 ng/mL
[6]; po, with Oral CEE 1.25 mg/day, n=13, read-out: Changes in Total T
  concentration at 3.5 day: 0.708 ± 0.096 ng/mL

Source: patent US8551516B2, “Administration of non-oral androgenic steroids to women” (Actavis, Inc., priority 1999, dated 2013)
